One test addresses T1, Axl (Homo sapiens, UniProt P30530).
T1 sequence (P30530 26-894): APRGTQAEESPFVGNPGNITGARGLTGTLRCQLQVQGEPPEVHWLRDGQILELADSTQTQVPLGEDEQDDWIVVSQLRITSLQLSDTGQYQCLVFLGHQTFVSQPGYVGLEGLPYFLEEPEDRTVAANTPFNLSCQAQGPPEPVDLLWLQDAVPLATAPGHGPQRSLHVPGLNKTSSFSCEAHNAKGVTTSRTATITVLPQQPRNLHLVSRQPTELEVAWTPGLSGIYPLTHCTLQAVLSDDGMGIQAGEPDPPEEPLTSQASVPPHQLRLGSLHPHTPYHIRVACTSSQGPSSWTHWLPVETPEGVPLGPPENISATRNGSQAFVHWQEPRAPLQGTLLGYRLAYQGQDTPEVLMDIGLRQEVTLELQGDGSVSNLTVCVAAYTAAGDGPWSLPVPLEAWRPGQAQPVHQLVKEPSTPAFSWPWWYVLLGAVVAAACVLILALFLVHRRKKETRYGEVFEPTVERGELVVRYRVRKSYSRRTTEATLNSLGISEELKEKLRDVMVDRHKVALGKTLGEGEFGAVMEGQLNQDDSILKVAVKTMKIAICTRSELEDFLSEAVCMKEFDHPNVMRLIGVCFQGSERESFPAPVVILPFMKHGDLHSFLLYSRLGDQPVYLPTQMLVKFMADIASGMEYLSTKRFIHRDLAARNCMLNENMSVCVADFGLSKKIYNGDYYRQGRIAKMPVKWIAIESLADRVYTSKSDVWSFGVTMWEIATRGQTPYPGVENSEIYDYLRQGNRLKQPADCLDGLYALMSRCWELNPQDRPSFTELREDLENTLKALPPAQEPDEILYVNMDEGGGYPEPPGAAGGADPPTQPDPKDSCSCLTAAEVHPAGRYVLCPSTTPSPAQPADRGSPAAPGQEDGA
Briefly: HTRF KinEASE-TK biochemical potency assay, AXL. The arrangement: purchased Invitrogen. The settings on record: 5 nM AXL, 700 μM ATP, 800 nM TK Substrate-biotin. Here is the method:
(§1) Purified recombinant human AXL, TYRO3 and MER proteins were purchased from Invitrogen™. 10 nM AXL, 2 nM TYRO3 or MER were incubated with varying concentrations of compounds in 50 mM HEPES, pH 7.4, 10 mM MgCl2, 0.01% BSA, 1 mM DTT and 2% DMSO in a total volume of 20 μl in a 384-well microplate (Corning™ #3640) at RT for 1 h. The AXL, TYRO3 and MER enzymatic reaction was initiated by transferring 10 μl of enzyme and compound mixture into 10 μl of 1.6 μM TK Substrate-biotin (HTRF® KinEASE-TK kit, Cisbio) and 1400 μM ATP pre-incubated in 50 mM HEPES, pH 7.4, 10 mM MgCl2, 0.01% BSA, 1 mM DTT in a 384-well microplate (Corning™ #3640) at RT, giving the final reaction conditions: 5 nM AXL, 1 nM TYRO3 or MER, 800 nM TK Substrate-biotin and 700 μM ATP in 50 mM HEPES, pH 7.4, 10 mM MgCl2, 0.01% BSA, 1 mM DTT and 1% DMSO with varying concentrations of compounds. Following 2 h incubation at RT, the AXL, TYRO3 and MER enzymatic reaction was stopped by transfer of 10 μl of reaction into 10 μl of detection mix (400 nM Streptavidin-XL665, 200-fold dilution TK Antibody-Cryptate and detection buffer, HTRF® KinEASE-TK kit, Cisbio) in a white 384-well microplate (Perkin Elmer, OptiPlate 384). After 1 h incubation at RT, the plate was put into a plate reader (Evision) to read at 665/620 nm (acceptor/donor) for HTRF. The value of the DMSO blank (MIN inhibition=100% activity) was used as a negative control. The positive control was established by adding 5 μl of enzyme and DMSO mixture into 10 μl of detection mix followed by addition of 5 μl of TK Substrate-biotin and ATP mixture (MAX inhibition=0% activity). To calculate the percent activity, Equation 1 was used. Ratio 665/620 is the value at a given compound concentration: […]

The target of the next test is T2, human MER (Homo sapiens, UniProt Q12866).
T2 construct: purchased Invitrogen
T2 sequence (Q12866 21-999): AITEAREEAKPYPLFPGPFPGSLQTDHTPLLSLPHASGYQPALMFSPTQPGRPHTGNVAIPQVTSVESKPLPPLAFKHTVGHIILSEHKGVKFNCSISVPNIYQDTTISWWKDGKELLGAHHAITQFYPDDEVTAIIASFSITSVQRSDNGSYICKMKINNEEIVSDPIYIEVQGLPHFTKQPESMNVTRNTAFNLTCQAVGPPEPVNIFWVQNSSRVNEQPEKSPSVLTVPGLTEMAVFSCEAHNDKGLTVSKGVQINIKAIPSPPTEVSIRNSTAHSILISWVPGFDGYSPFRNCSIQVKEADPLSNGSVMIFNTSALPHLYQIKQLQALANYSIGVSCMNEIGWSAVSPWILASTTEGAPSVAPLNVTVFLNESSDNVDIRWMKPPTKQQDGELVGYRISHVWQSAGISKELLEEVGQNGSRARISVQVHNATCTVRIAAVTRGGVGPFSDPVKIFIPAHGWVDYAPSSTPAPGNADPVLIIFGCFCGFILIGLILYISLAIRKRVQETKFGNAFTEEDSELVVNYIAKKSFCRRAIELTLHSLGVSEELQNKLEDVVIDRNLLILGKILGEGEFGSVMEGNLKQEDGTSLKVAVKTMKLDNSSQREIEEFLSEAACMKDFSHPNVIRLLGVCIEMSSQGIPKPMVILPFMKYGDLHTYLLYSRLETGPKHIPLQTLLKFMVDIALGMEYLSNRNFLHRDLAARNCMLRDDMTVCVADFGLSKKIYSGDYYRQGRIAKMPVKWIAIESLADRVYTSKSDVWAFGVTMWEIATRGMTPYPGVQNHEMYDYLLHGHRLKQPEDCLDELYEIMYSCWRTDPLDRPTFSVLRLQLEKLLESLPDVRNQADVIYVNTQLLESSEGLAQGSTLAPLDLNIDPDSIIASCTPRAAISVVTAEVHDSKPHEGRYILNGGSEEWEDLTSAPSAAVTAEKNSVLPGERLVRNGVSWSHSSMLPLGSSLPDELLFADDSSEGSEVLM
Kind of test: HTRF KinEASE-TK biochemical potency assay, MER. The note with it: 1 nM MER, 700 μM ATP, 800 nM TK Substrate-biotin. Here is the method: as §1

Take `CC1(N2CCC[C@H]2CO)CCc2ccc(-c3cnc4[nH]nc(-c5ccc(S(=O)(=O)C6CC6)cc5)c4c3)cc2CC1` (stereo partly drawn) [Example 4, [(2S)-1-(2-{3-[4-(Cyclopropanesulfonyl)phenyl]-1H-pyrazolo[3,4-b]pyridin-5-yl}-7-methyl-6,7,8,9-tetrahydro-5H-benzo[7]annulen-7-yl)pyrrolidin-2-yl]methanol]: the IC50 on Axl was under 100 nM; at human MER, 100 to 1000 nM.

As to `C[C@H]1CCCN1C1(C)CCc2ccc(-c3cnc4[nH]nc(-c5ccc(S(=O)(=O)C6CC6)cc5)c4c3)cc2CC1` (stereo partly drawn) [Example 5, (2S)-1-(2-{3-[4-(Cyclopropanesulfonyl)phenyl]-1H-pyrazolo[3,4-b]pyridin-5-yl}-7-methyl-6,7,8,9-tetrahydro-5H-benzo[7]annulen-7-yl)-2-methylpyrrolidine], the IC50 on Axl is under 100 nM; against human MER, 100 to 1000 nM.

Take `CCC1(N2CCC[C@H]2C)CCc2ccc(-c3cnc4[nH]nc(-c5ccc(S(=O)(=O)C6CC6)cc5)c4c3)cc2CC1` (stereo partly drawn) [Example 6, (2R)-1-(2-{3-[4-(Cyclopropanesulfonyl)phenyl]-1H-pyrazolo[3,4-b]pyridin-5-yl}-7-ethyl-6,7,8,9-tetrahydro-5H-benzo[7]annulen-7-yl)-2-methylpyrrolidine]: the IC50 is under 100 nM on Axl and over 1000 nM against human MER.

For `CC1(N2CCC2)CCc2ccc(-c3cnc4[nH]nc(-c5ccc(S(=O)(=O)C6CC6)cc5)c4c3)cc2CC1` (stereo not shown) [Example 7, 1-(2-{3-[4-(Cyclopropanesulfonyl)phenyl]-1H-pyrazolo[3,4-b]pyridin-5-yl}-7-methyl-6,7,8,9-tetrahydro-5H-benzo[7]annulen-7-yl)azetidine], the IC50 was under 100 nM against Axl and 100 to 1000 nM on human MER.

With `C[C@@H]1CCCN1C1(C)CCc2ccc(-c3cnc4[nH]nc(-c5ccc(S(=O)(=O)C(F)(F)F)cc5)c4c3)cc2CC1` (stereo partly drawn) [Example 8, (2R)-2-Methyl-1-{7-methyl-2-[3-(4-trifluoromethanesulfonylphenyl)-1H-pyrazolo[3,4-b]pyridin-5-yl]-6,7,8,9-tetrahydro-5H-benzo[7]annulen-7-yl}pyrrolidine], the IC50 against Axl is under 100 nM; on human MER it was over 1000 nM.

With `CC(C)(O)c1ccc(-c2n[nH]c3ncc(-c4ccc5c(c4)CCC(N4CCCC4)CC5)cc23)cn1` (stereo not shown) [Example 9, 2-(5-{5-[7-(Pyrrolidin-1-yl)-6,7,8,9-tetrahydro-5H-benzo[7]annulen-2-yl]-1H-pyrazolo[3,4-b]pyridin-3-yl}pyridin-2-yl)propan-2-ol], the results for the IC50 on Axl and at human MER were under 100 nM and 100 to 1000 nM, respectively.

Regarding `CC(C)(O)c1ccc(-c2n[nH]c3ncc(-c4ccc5c(c4)CCN(C4CCCC4)CC5)cc23)cn1` [Example 10, 2-{5-[5-(3-Cyclopentyl-2,3,4,5-tetrahydro-1H-3-benzazepin-7-yl)-1H-pyrazolo[3,4-b]pyridin-3-yl]pyridin-2-yl}propan-2-ol], the IC50 against Axl was under 100 nM; against human MER, 100 to 1000 nM.

For the compound `CC(C)(O)c1ccc(-c2n[nH]c3ncc(-c4ccc5c(c4)CCC(N4CCCC4)CC5)cc23)cc1Cl` (stereo not shown) [Example 11, 2-(2-Chloro-4-{5-[7-(pyrrolidin-1-yl)-6,7,8,9-tetrahydro-5H-benzo[7]annulen-2-yl]-1H-pyrazolo[3,4-b]pyridin-3-yl}phenyl)propan-2-ol], the IC50 on Axl was under 100 nM; on human MER, 100 to 1000 nM.

As for `CC(C)(O)c1ccc(-c2n[nH]c3ncc(-c4ccc5c(c4)CCN(C4CCCC4)CC5)cc23)cc1Cl` [Example 12, 2-{2-Chloro-4-[5-(3-cyclopentyl-2,3,4,5-tetrahydro-1H-3-benzazepin-7-yl)-1H-pyrazolo[3,4-b]pyridin-3-yl]phenyl}propan-2-ol], the figures for the IC50 on Axl and on human MER were under 100 nM and over 1000 nM, respectively.

`CC(C)(O)c1ccc(-c2n[nH]c3ncc(-c4ccc5c(c4)CCN(C4CCCC4)CC5)cc23)cc1C(F)(F)F` [Example 16, 2-{4-[5-(3-Cyclopentyl-2,3,4,5-tetrahydro-1H-3-benzazepin-7-yl)-1H-pyrazolo[3,4-b]pyridin-3-yl]-2-(trifluoromethyl)phenyl}propan-2-ol]: the IC50 is under 100 nM against Axl and 100 to 1000 nM against human MER.

`CC(C)(O)c1ccc(-c2n[nH]c3ncc(-c4ccc5c(c4)CCN(C4CCCC4)CC5)cc23)c(F)c1` [Example 17, 2-{4-[5-(3-Cyclopentyl-2,3,4,5-tetrahydro-1H-3-benzazepin-7-yl)-1H-pyrazolo[3,4-b]pyridin-3-yl]-3-fluorophenyl}propan-2-ol]: the figures for the IC50 against Axl and at human MER were under 100 nM and over 1000 nM, respectively.

In the case of `C[C@@H]1CCCN1C1CCc2ccc(-c3cnc4[nH]nc(-c5ccc(C(C)(C)O)c(C(F)(F)F)c5)c4c3)cc2CC1` (stereo partly drawn) [Example 20, 2-[4-(5-{7-[(2R)-2-Methylpyrrolidin-1-yl]-6,7,8,9-tetrahydro-5H-benzo[7]annulen-2-yl}-1H-pyrazolo[3,4-b]pyridin-3-yl)-2-(trifluoromethyl)phenyl]propan-2-ol], the results for the concentration for half-maximal inhibition (IC50) against Axl and on human MER were under 100 nM and 100 to 1000 nM, respectively.

For `CC(C)(O)c1ccc(-c2n[nH]c3ncc(-c4ccc5c(c4)CCC(N4CCC[C@@H]4CO)CC5)cc23)cc1Cl` (stereo partly drawn) [Example 21, 2-[2-Chloro-4-(5-{7-[(2R)-2-(hydroxymethyl)pyrrolidin-1-yl]-6,7,8,9-tetrahydro-5H-benzo[7]annulen-2-yl}-1H-pyrazolo[3,4-b]pyridin-3-yl)phenyl]propan-2-ol], the IC50 on Axl is under 100 nM; on human MER it was 100 to 1000 nM.

Regarding `C[C@@H]1CCCN1C1(C)CCc2ccc(-c3cnc4[nH]nc(-c5ccc(C(C)(C)O)nc5)c4c3)cc2CC1` (stereo partly drawn) [Example 22, 2-[5-(5-{7-Methyl-7-[(2R)-2-methylpyrrolidin-1-yl]-6,7,8,9-tetrahydro-5H-benzo[7]annulen-2-yl}-1H-pyrazolo[3,4-b]pyridin-3-yl)pyridin-2-yl]propan-2-ol], the IC50 is under 100 nM against Axl and 100 to 1000 nM on human MER.

The term IC50 denotes the concentration that gives 50% inhibition. Low readings indicate inhibition by little substance, high ones a need for much substance.

Values taken from patent publication US20240246967A1, “AXL COMPOUNDS” (ARCUS BIOSCIENCES, INC., priority 2021, published 2024).
